Data on 8 compounds can be found in ChEMBL document CHEMBL2177093, “The design and identification of brain penetrant inhibitors of phosphoinositide 3-kinase α” (J Med Chem, 2012).

In general, IC50 refers to the midpoint of a concentration-inhibition curve. What is called EC50 is the concentration at which the effect is half-maximal. A lower EC50 goes with greater potency. One may read the efflux ratio as the permeability from basolateral to apical divided by that in the opposite direction, in the common usage. As a reminder, the clearance is the volume of plasma or blood freed of the substance per unit of time. High values mean a high capacity for elimination, low ones a low capacity for elimination. Broadly, the half-life is how long it takes for the measured level to halve. Low values mean fast loss, high ones slow loss. As usually defined, the CL/F is the apparent clearance, not corrected for the fraction that reaches the circulation. The bioavailability is dose-corrected exposure relative to a reference, in per cent. A high value points to good availability. A word on the inhibition in vivo: it is the change of the read-out against control, counted positive when it falls.

Activity calls are given as the source filed them. The rule behind the calls is not given here.

The target of series [1] is Phosphatidylinositol 4,5-bisphosphate 3-kinase catalytic subunit alpha isoform (Homo sapiens, UniProt P42336). Nature of the series: Inhibition of PI3Kalpha assessed as reduction in PIP3 formation after 30 mins by fluorescence polarization assay.
Chain of Phosphatidylinositol 4,5-bisphosphate 3-kinase catalytic subunit alpha isoform (P42336 whole entry, canonical isoform): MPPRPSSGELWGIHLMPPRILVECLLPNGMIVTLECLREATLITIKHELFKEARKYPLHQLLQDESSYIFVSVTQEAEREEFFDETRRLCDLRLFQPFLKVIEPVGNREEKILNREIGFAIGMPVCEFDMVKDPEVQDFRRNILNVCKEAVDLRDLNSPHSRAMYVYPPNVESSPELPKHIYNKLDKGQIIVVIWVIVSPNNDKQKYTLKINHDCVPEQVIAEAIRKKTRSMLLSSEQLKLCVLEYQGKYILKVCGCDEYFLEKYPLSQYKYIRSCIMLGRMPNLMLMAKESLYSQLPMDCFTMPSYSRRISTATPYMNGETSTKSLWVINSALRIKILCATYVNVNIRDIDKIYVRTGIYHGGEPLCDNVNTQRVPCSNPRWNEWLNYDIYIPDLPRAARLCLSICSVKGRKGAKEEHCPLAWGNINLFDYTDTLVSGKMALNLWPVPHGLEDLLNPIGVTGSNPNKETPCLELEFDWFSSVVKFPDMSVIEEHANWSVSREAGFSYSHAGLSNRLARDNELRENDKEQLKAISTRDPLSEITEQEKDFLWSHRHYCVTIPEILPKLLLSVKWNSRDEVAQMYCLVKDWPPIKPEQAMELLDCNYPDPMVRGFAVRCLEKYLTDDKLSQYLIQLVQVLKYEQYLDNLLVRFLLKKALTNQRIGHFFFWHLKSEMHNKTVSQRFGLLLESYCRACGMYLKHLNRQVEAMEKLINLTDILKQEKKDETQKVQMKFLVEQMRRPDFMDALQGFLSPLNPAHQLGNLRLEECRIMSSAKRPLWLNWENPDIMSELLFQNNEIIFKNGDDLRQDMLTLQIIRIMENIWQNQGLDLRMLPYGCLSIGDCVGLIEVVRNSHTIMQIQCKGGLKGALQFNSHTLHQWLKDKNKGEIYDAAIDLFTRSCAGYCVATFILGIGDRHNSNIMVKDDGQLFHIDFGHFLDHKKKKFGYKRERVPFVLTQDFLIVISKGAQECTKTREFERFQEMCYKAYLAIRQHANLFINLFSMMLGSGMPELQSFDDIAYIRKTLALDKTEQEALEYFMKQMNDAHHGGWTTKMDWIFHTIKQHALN
The subject of a further series is PC-3. Put plainly: Antiproliferative activity against human PC3 cells incubated for 3 days. The class given is functional, cell-based. The following applies: PC-3, 72 h.
The next series in a line: in vitro. The note with it: human, liver microsomes.
A further series deals with mouse Bcrp1. Nature of the series: in vitro. The note with it: dog.
A short description of series [2]: Ratio of drug level in brain to plasma in CD-1 mouse at 20 mg/kg, po measured at 1 hr. The note with it: read-out: BPR. The series is classed as ADME, organism-based. More on the design: dose 20 mg/kg, route oral.
A short description of series [3]: Clearance in rat. The class given is ADME, organism-based. The note with it: in vivo.
A short description of series [4]: Ratio of drug level in brain to plasma in CD-1 mouse at 15 mg/kg, po measured at 0.5 hrs. The class given is ADME, organism-based. More on the design: dose 15 mg/kg, route oral. The note with it: read-out: BPR.
In series [5] the target is Serine/threonine-protein kinase mTOR (Homo sapiens, UniProt P42345). Put plainly: Inhibition of human recombinant mTOR (1360 to 2549 amino acids) assessed as reduction in phosphorylation of (GFP)-4-EBP1 after 30 mins by FRET assay. The following applies: read-out: Ki(app).
A short description of series [6]: Half life in po dosed CD-1 mouse. The class given is ADME, organism-based. The following applies: in vivo.
A short description of series [7]: Plasma protein binding in CD-1 mouse. The class given is ADME, cell-free. The note with it: read-out: PPB (converted).
Series [8] in a line: Ratio of drug level in brain to plasma in CD-1 mouse at 15 mg/kg, po at 0.5 hr. The series is classed as ADME, organism-based. The following applies: read-out: BPR. More on the design: dose 15 mg/kg, route oral.
Series [9] is described as follows: Ratio of drug level in brain to plasma in CD-1 mouse at 15 mg/kg, po at 4 hrs. The series is classed as ADME, organism-based. The arrangement: dose 15 mg/kg, route oral. The note with it: read-out: BPR.
A short description of series [10]: Ratio of drug level in brain to plasma in CD-1 mouse at 10 mg/kg, po measured at 0.5 hrs. More on the design: dose 10 mg/kg, route oral. The series is classed as ADME, organism-based. The following applies: read-out: BPR.
In another series the test system is U-87MG ATCC. Nature of the series: Antitumor activity against PTEN deficient human U87MG cells xenografted in NCr nude mouse assessed as inhibition of tumor growth at 3 to 14 mg/kg, po qd for 24 days. The class given is functional, organism-based.
Series [11] in a line: Drug level in CD-1 mouse brain at 25 mg/kg, po administered as single dose measured after 6 hrs post dose. The following applies: read-out: Drug uptake. The arrangement: dose 25 mg/kg, route oral. The series is classed as ADME, organism-based.
Series [12] can be described thus: Drug level in CD-1 mouse brain at 25 mg/kg, po administered as single dose measured after 1 hr post dose. The class given is ADME, organism-based. More on the design: dose 25 mg/kg, route oral. The note with it: read-out: Drug uptake.
Series [13] in a line: Clearance in po dosed CD-1 mouse. The class given is ADME, organism-based. The note with it: in vivo.
Series [14] is described as follows: Oral bioavailability in CD-1 mouse. The series is classed as ADME, organism-based. The note with it: in vivo.
Series [15] in a line: Ratio of drug level in brain to plasma in CD-1 mouse at 25 mg/kg, po at 1 hr. The note with it: read-out: BPR. More on the design: dose 25 mg/kg, route oral. The series is classed as ADME, organism-based.
The nature of series [16]: Ratio of drug level in brain to plasma in CD-1 mouse at 25 mg/kg, po at 6 hrs. The series is classed as ADME, organism-based. The arrangement: dose 25 mg/kg, route oral. The note with it: read-out: BPR.
A short description of series [17]: Cytotoxicity against human A172 cells incubated for 4 days. The class given is functional, cell-based. The note with it: A 172, 96 h.
A short description of series [18]: Cytotoxicity against human Hs683 cells incubated for 4 days. The series is classed as functional, cell-based. The following applies: Hs 683, 96 h.
The nature of series [19]: Cytotoxicity against human LN229 cells incubated for 4 days. The series is classed as functional, cell-based. The note with it: LN-229, 96 h.
The subject of a further series is M059J. Put plainly: Cytotoxicity against human M059J cells incubated for 4 days. The class given is functional, cell-based. The note with it: 96 h.
The next series relates to SF-539. Put plainly: Cytotoxicity against human SF539 cells incubated for 4 days. The class given is functional, cell-based. The following applies: SF-539, 96 h.
The nature of series [20]: Cytotoxicity against human U87MG cells incubated for 4 days. The class given is functional, cell-based, U-87MG ATCC. The following applies: U-87 MG, 96 h.
For another series, the system named is SF-268. Nature of the series: Cytotoxicity against human SF268 cells incubated for 4 days. The class given is functional, cell-based. The following applies: SF-268, 96 h.
Series [21] concerns Mus musculus. Nature of the series: Inhibition of PI3K signaling in CD-1 mouse assessed as reduction in pAKT level at 25 mg/kg, po administered as single dose measured after 1 hr post dose by immunoblotting method. The following applies: CD-1, 1 h. The series is classed as functional.
Series [22] is described as follows: Toxicity in PTEN deficient human U87MG cells xenografted in NCr nude mouse at dosed orally once daily for 24 days. The series is classed as organism-based, U-87MG ATCC. The note with it: in vivo, po. A general note: In xenograft studies the graft and the host belong to different species.
In series [23] the test system is Mus musculus. Put plainly: Toxicity in PTEN deficient human U87MG cells xenografted in NCr nude mouse assessed as loss in body weight at 6 mg/kg, po qd for 24 days. The series is classed as organism-based, U-87MG ATCC. More on the design: dose 6 mg/kg, route oral. The note with it: in vivo, 576 h.
In series [24] the test system is Mus musculus. Nature of the series: Toxicity in PTEN deficient human U87MG cells xenografted in NCr nude mouse assessed as loss in body weight at 14 mg/kg, po qd for 24 days. The class given is organism-based, U-87MG ATCC. More on the design: dose 14 mg/kg, route oral. The following applies: in vivo, 576 h.
The test system of series [25] is Mus musculus. Put plainly: Toxicity in PTEN deficient human U87MG cells xenografted in NCr nude mouse assessed as loss in body weight at 18 mg/kg, po qd for 24 days. The series is classed as organism-based, U-87MG ATCC. The following applies: in vivo, 576 h. More on the design: dose 18 mg/kg, route oral.
Series [26] is filed under the species Mus musculus. The following applies: NCr, U-87MG ATCC, 10 mg/kg.
Series [27] is filed under the species Mus musculus. The following applies: NCr, U-87MG ATCC, 40 mg/kg.
The species named for series [28] is Mus musculus. The note with it: NCr, U-87MG ATCC, 3 mg/kg.
The species entered for series [29] is Mus musculus. The following applies: NCr, U-87MG ATCC, 10 mg/kg. This is another data set of the same source.
The species entered for series [30] is Mus musculus. The note with it: NCr, U-87MG ATCC, 40 mg/kg. The source holds these as a separate data set.
The species named for series [31] is Mus musculus. The note with it: NCr, U-87MG ATCC, 3 mg/kg. This is another data set of the same source.

On to `c1cc(-c2nc(N3CCOCC3)c3sccc3n2)c2cn[nH]c2c1`, for which the concentration for half-maximal inhibition (IC50) in series [1] was 0.036 µM. The EC50 with PC-3 came out at 3.6 µM. In “in vitro”, the CLhep predicted was 16 mL/min/kg. For the same compound, the efflux ratio at 2 h, 5 µM with mouse Bcrp1 was 1.
With `Cc1c(CN2CCN(C(=O)[C@H](C)O)CC2)sc2c(N3CCOCC3)nc(-c3cnc(N)nc3)nc12` [APITOLISIB], in [2], the Kp at 1 h is less than 0.1. The compound also displayed a clearance in series [3] of 3 mL/min/kg. In addition, the CLhep predicted in “in vitro” was 3 mL/min/kg.
Regarding `Cc1c(C2(O)COC2)sc2c(N3CCOCC3)nc(-c3cnc(N)nc3)nc12`, the efflux ratio at 2 h, 5 µM with mouse Bcrp1 stood at 7.1.
As for `CC(C)(O)c1cc2nc(-c3cnc(N)nc3)nc(N3CCOCC3)c2s1`, the Kp at 0.5 h turned out to be 0.2 in [4] and 0.3 in [8]. Moreover, the Ki in series [5] was determined as 0.03 µM. This compound gave a half-life in series [6] of 2.2 h. Besides, in [7], the fraction unbound was 0.198. The Kp at 4 h in series [9] was found to be 0.2. Besides, the CLhep predicted in the series “in vitro” is 4 mL/min/kg.
Regarding `CS(=O)(=O)N1CCN(Cc2cc3nc(-c4cccc5[nH]ncc45)nc(N4CCOCC4)c3s2)CC1` [PICTILISIB], in series [10], the Kp at 0.5 h is less than 0.05.
In the case of `CC(=O)N1CC(c2cc3nc(-c4cnc(N)nc4)nc(N4CCOCC4)c3s2)C1`, the efflux ratio at 2 h, 5 µM in the series on mouse Bcrp1 came out at 43.
Turning to `COC(C)(C)c1cc2nc(-c3cnc(N)nc3)nc(N3CCOCC3)c2s1`, the TGI result with U-87MG ATCC was “Dose-dependent effect”. Further, the concentration at 6 h in series [11] was found to be 350 nM. In addition, the concentration at 1 h in series [12] amounted to 2140 nM. The CL/F in series [13] was 20 mL/min/kg. For the same compound, the half-life in series [6] is 20 h. In series [14], this compound yielded a bioavailability of 25%. Besides, the fraction unbound in [7] was 0.102. In [15], the Kp at 1 h was 1. Also, the Kp at 6 h in series [16] came out at 0.9. Further, the EC50 in [17] amounted to 0.38 µM; in series [18] it was 0.27 µM; in series [19], 0.4 µM; with M059J, 0.59 µM; in the series on SF-539, 0.34 µM; in series [20] it was 0.29 µM. The compound further displayed an EC50 in the series on SF-268 of 1 µM. The inhibition in vivo at 25 mg/kg in the series with Mus musculus [21] came to 39%. In series [22], this compound displayed an MTD at 576 h of 14 mg/kg. Besides, the values for the Activity result in the series with Mus musculus [23], with Mus musculus [24] and with Mus musculus [25] were “Non-toxic”, less than 15% and “Toxic”, respectively. Besides, the inhibition entry in the series filed under Mus musculus [26], in the series listed under Mus musculus [27], in the series listed under Mus musculus [28], in the series listed under Mus musculus [29], in the series filed under Mus musculus [30] and in the series listed under Mus musculus [31] was “Active” in each case.
As to `Nc1ncc(-c2nc(N3CCOCC3)c3sc(C4CNC4)cc3n2)cn1`, in the series with mouse Bcrp1, the efflux ratio at 2 h, 5 µM stood at 22.
